Values joined by “and” are separate entries in the source; they are usually repeats but may differ in a detail not shown here. Equal values may be shown once. Inconclusive results and toxic doses are left out.
System: BDF1 mice, P388 leukemia ip, median survival T/C
Experiment: NCI In Vivo Anticancer Drug Screen. Data for tumor model P388 Leukemia (intraperitoneal) in B6D2F1 (BDF1) mice
Settings: endpoint: median survival time, higher = longer survival
Procedure: The antitumor activity of compounds was measured in mice bearing transplantable tumors. Survival or tumor size were measured and the results are expressed as the measurement made in the treated group (T) divided by the measurement made in the vehicle treated control group (C). The tumor model used in this assay is P388 Leukemia (intraperitoneal) in B6D2F1 (BDF1) mice

[1] = dose: 100.0 mg/kg/injection, schedule: Q01DX001 (ip), vehicle: Klucel (hydroxypropylcellulose) (HPC)
[2] = dose: 100.0 mg/kg/injection, schedule: Q04DX003 (ip), vehicle: Klucel (hydroxypropylcellulose) (HPC)
[3] = dose: 200.0 mg/kg/injection, schedule: Q01DX001 (ip), vehicle: Klucel (hydroxypropylcellulose) (HPC)
[4] = dose: 400.0 mg/kg/injection, schedule: Q01DX001 (ip), vehicle: Klucel (hydroxypropylcellulose) (HPC)
[5] = dose: 50.0 mg/kg/injection, schedule: Q01DX009 (ip), vehicle: saline with Tween-80
[6] = dose: 6.25 mg/kg/injection, schedule: Q04DX003 (ip), vehicle: saline
[7] = dose: 12.5 mg/kg/injection, schedule: Q04DX003 (ip), vehicle: saline
[8] = dose: 150.0 mg/kg/injection, schedule: Q04DX003 (ip), vehicle: Klucel (hydroxypropylcellulose) (HPC)
[9] = dose: 100.0 mg/kg/injection, schedule: Q04DX003 (ip), vehicle: saline
[10] = dose: 200.0 mg/kg/injection, schedule: Q04DX003 (ip), vehicle: saline
[11] = dose: 400.0 mg/kg/injection, schedule: Q04DX003 (ip), vehicle: saline
[12] = dose: 50.0 mg/kg/injection, schedule: Q01DX009 (ip), vehicle: saline
[13] = dose: 100.0 mg/kg/injection, schedule: Q01DX009 (ip), vehicle: saline
[14] = dose: 200.0 mg/kg/injection, schedule: Q01DX009 (ip), vehicle: saline
[15] = dose: 400.0 mg/kg/injection, schedule: Q01DX009 (ip), vehicle: saline
[16] = dose: 25.0 mg/kg/injection, schedule: Q01DX009 (ip), vehicle: saline
[17] = dose: 50.0 mg/kg/injection, schedule: Q04DX003 (ip), vehicle: saline

## O=C(O)CCSCCC(=O)O
[1]
  T/C: 104 % of control
[2]
  T/C: 104 % of control
[3]
  T/C: 108 % of control
dose: 200.0 mg/kg/injection, schedule: Q04DX003 (ip), vehicle: Klucel (hydroxypropylcellulose) (HPC)
  T/C: 100 % of control
[4]
  T/C: 116 % of control
dose: 400.0 mg/kg/injection, schedule: Q04DX003 (ip), vehicle: Klucel (hydroxypropylcellulose) (HPC)
  T/C: 113 % of control

## O=C(O)COc1ccc(-c2ccc(Br)cc2)cc1
[5]
  T/C: 90 % of control
dose: 200.0 mg/kg/injection, schedule: Q01DX009 (ip), vehicle: saline with Tween-80
  T/C: 100 % of control
dose: 400.0 mg/kg/injection, schedule: Q01DX009 (ip), vehicle: saline with Tween-80
  T/C: 101 % of control

## C[N+]1(C)CCCC1
[6]
  T/C: 100 % of control
[7]
  T/C: 100 % of control

## [Cl][Rh][Cl].[NH-]c1ccc(S(N)(=O)=O)cc1.[NH-]c1ccc(S(N)(=O)=O)cc1.[NH-]c1ccc(S(N)(=O)=O)cc1.[NH-]c1ccc(S(N)(=O)=O)cc1
dose: 100.0 mg/kg/injection, schedule: Q04DX003 (ip), vehicle: saline with Tween-80
  T/C: 108 % of control
dose: 200.0 mg/kg/injection, schedule: Q04DX003 (ip), vehicle: saline with Tween-80
  T/C: 103 % of control
dose: 400.0 mg/kg/injection, schedule: Q04DX003 (ip), vehicle: saline with Tween-80
  T/C: 107 % of control

## CNC(=S)N/N=C(/C)CCc1c(C)nn(C(=S)NC)c1C
[8]
  T/C: 112 % of control
dose: 225.0 mg/kg/injection, schedule: Q04DX003 (ip), vehicle: Klucel (hydroxypropylcellulose) (HPC)
  T/C: 112 % of control
dose: 335.0 mg/kg/injection, schedule: Q04DX003 (ip), vehicle: Klucel (hydroxypropylcellulose) (HPC)
  T/C: 108 % of control

## CN(CCOc1ccccc1O)CCOc1ccccc1O
[1]
  T/C: 120 % of control
[3]
  T/C: 110 % of control
[4]
  T/C: 105 % of control

## Cc1cc(Cl)nc(Nc2ccccc2)n1
dose: 3.12 mg/kg/injection, schedule: Q01DX009 (ip), vehicle: DMSO
  T/C: 100 % of control
dose: 6.25 mg/kg/injection, schedule: Q01DX009 (ip), vehicle: DMSO
  T/C: 95 % of control and 100 % of control
dose: 6.25 mg/kg/injection, schedule: Q04DX003 (ip), vehicle: DMSO
  T/C: 100 % of control
dose: 12.5 mg/kg/injection, schedule: Q01DX009 (ip), vehicle: DMSO
  T/C: 100 % of control
dose: 12.5 mg/kg/injection, schedule: Q04DX003 (ip), vehicle: DMSO
  T/C: 108 % of control
dose: 25.0 mg/kg/injection, schedule: Q01DX009 (ip), vehicle: DMSO
  T/C: 95 % of control
dose: 25.0 mg/kg/injection, schedule: Q04DX003 (ip), vehicle: DMSO
  T/C: 91 % of control

## CCCCCCCCC1SC1CCCCCCCC(=O)OCCN(C)C(=O)CCCCCCCC1SC1CCCCCCCC (stereo not drawn)
dose: 100.0 mg/kg/injection, schedule: Q04DX003 (ip), vehicle: other
  T/C: 100 % of control
dose: 200.0 mg/kg/injection, schedule: Q04DX003 (ip), vehicle: other
  T/C: 100 % of control
dose: 400.0 mg/kg/injection, schedule: Q04DX003 (ip), vehicle: other
  T/C: 100 % of control

## CC12CCC(c3sc(N)c(C#N)c31)C2(C)C (stereo not drawn)
dose: 1.56 mg/kg/injection, schedule: Q01DX009 (ip), vehicle: saline with Tween-80
  T/C: 88 % of control
dose: 3.13 mg/kg/injection, schedule: Q01DX009 (ip), vehicle: saline with Tween-80
  T/C: 102 % of control
dose: 6.25 mg/kg/injection, schedule: Q01DX009 (ip), vehicle: saline with Tween-80
  T/C: 104 % of control
dose: 12.5 mg/kg/injection, schedule: Q01DX009 (ip), vehicle: saline with Tween-80
  T/C: 104 % of control and 121 % of control
dose: 25.0 mg/kg/injection, schedule: Q01DX009 (ip), vehicle: saline with Tween-80
  T/C: 104 % of control
[5]
  T/C: 118 % of control

## CCN(CC)CCCC(C)Nc1c2ccccc2nc2c(Cl)cccc12 (stereo not drawn)
dose: 25.0 mg/kg/injection, schedule: Q01DX009 (ip), vehicle: saline sonified
  T/C: 88 % of control
dose: 50.0 mg/kg/injection, schedule: Q01DX009 (ip), vehicle: saline sonified
  T/C: 94 % of control

## COc1cc(NC(=O)CC(C)=O)cc2c(C)cc(=O)[nH]c12
dose: 75.0 mg/kg/injection, schedule: Q04DX003 (ip), vehicle: Klucel (hydroxypropylcellulose) (HPC)
  T/C: 91 % of control
[8]
  T/C: 100 % of control
dose: 300.0 mg/kg/injection, schedule: Q04DX003 (ip), vehicle: Klucel (hydroxypropylcellulose) (HPC)
  T/C: 104 % of control

## O=C1NC(=O)C2(CCCCC2)N1
dose: 25.0 mg/kg/injection, schedule: Q01DX009 (ip), vehicle: Klucel (hydroxypropylcellulose) (HPC)
  T/C: 91 % of control
dose: 25.0 mg/kg/injection, schedule: Q04DX003 (ip), vehicle: Klucel (hydroxypropylcellulose) (HPC)
  T/C: 90 % of control
dose: 50.0 mg/kg/injection, schedule: Q01DX009 (ip), vehicle: Klucel (hydroxypropylcellulose) (HPC)
  T/C: 100 % of control
dose: 50.0 mg/kg/injection, schedule: Q04DX003 (ip), vehicle: Klucel (hydroxypropylcellulose) (HPC)
  T/C: 100 % of control
[2]
  T/C: 104 % of control

## O=[P+](O)C(O)c1ccccc1 (stereo not drawn)
[9]
  T/C: 100 % of control
[10]
  T/C: 108 % of control
[11]
  T/C: 91 % of control

## COC1N(C2CC(O)C(CO)O2)C(=O)NC(=O)C1(F)Br (stereo not drawn)
dose: 5.0 mg/kg/injection, schedule: Q01DX009 (ip), vehicle: saline
  T/C: 90 % of control
dose: 10.0 mg/kg/injection, schedule: Q01DX009 (ip), vehicle: saline
  T/C: 109 % of control
dose: 20.0 mg/kg/injection, schedule: Q01DX009 (ip), vehicle: saline
  T/C: 109 % of control
dose: 40.0 mg/kg/injection, schedule: Q01DX009 (ip), vehicle: saline
  T/C: 122 % of control
[12]
  T/C: 111 % of control
[13]
  T/C: 113 % of control
[9]
  T/C: 104 % of control
[14]
  T/C: 106 % of control
[10]
  T/C: 122 % of control
[15]
  T/C: 94 % of control
[11]
  T/C: 150 % of control

## NC(Cc1cc(Br)c(O)c(Br)c1)C(=O)O (stereo not drawn)
[16]
  T/C: 108 % of control
[12]
  T/C: 92 % of control
[17]
  T/C: 120 % of control
[13]
  T/C: 96 % of control
[9]
  T/C: 105 % of control
[14]
  T/C: 120 % of control
[10]
  T/C: 115 % of control
[15]
  T/C: 113 % of control

## O=C(Cn1cc(F)c(=O)[nH]c1=O)N1CCC2(CC1)SSC1(CCN(C(=O)Cn3cc(F)c(=O)[nH]c3=O)CC1)S2
[13]
  T/C: 90 % of control
[9]
  T/C: 104 % of control
[14]
  T/C: 95 % of control
[10]
  T/C: 95 % of control
[11]
  T/C: 104 % of control

## CC(C)CCCCCCCCCCCCC(=O)NCC(=O)NC1C(O)C(O)C(Nc2ncnc3nc[nH]c23)OC1C(O)CO (stereo not drawn)
dose: 0.09 mg/kg/injection, schedule: Q01DX010 (ip), vehicle: carboxymethylcellulose (CMC)
  T/C: 160 % of control
dose: 0.13 mg/kg/injection, schedule: Q01DX010 (ip), vehicle: steriod suspending solution
  T/C: 90 % of control
dose: 0.18 mg/kg/injection, schedule: Q01DX010 (ip), vehicle: carboxymethylcellulose (CMC)
  T/C: 180 % of control
dose: 0.37 mg/kg/injection, schedule: Q01DX010 (ip), vehicle: carboxymethylcellulose (CMC)
  T/C: 175 % of control
dose: 0.37 mg/kg/injection, schedule: Q01DX010 (ip), vehicle: steriod suspending solution
  T/C: 165 % of control

## CC(=O)OCC(=O)[C@@]1(O)CC[C@H]2[C@@H]3CCC4=CC(=O)CC[C@]4(C)[C@@]3(Cl)[C@@H](O)C[C@@]21C
dose: 18.7 mg/kg/injection, schedule: Q04DX003 (ip), vehicle: saline with Tween-80
  T/C: 109 % of control
dose: 37.5 mg/kg/injection, schedule: Q04DX003 (ip), vehicle: saline with Tween-80
  T/C: 109 % of control
dose: 66.0 mg/kg/injection, schedule: Q04DX003 (ip), vehicle: saline with Tween-80
  T/C: 113 % of control
dose: 75.0 mg/kg/injection, schedule: Q04DX003 (ip), vehicle: saline with Tween-80
  T/C: 118 % of control
dose: 150.0 mg/kg/injection, schedule: Q04DX003 (ip), vehicle: saline with Tween-80
  T/C: 118 % of control

## COc1cc2ccncc2cc1OCc1ccccc1
[6]
  T/C: 100 % of control
[7]
  T/C: 100 % of control and 118 % of control
[16]
  T/C: 86 % of control
dose: 25.0 mg/kg/injection, schedule: Q04DX003 (ip), vehicle: saline
  T/C: 93 % of control and 103 % of control
[12]
  T/C: 92 % of control
[17]
  T/C: 98 % of control and 118 % of control
[13]
  T/C: 104 % of control
[9]
  T/C: 97 % of control and 100 % of control
[10]
  T/C: 93 % of control and 120 % of control
[11]
  T/C: 106 % of control

Reference: PubChem BioAssay AID328 (DTP/NCI, 2004)
